The source of these data is patent publication EP1022028A1, “SUSTAINED-RELEASE ORAL PREPARATION” (Takeda Chemical Industries, Ltd., priority 1997, dated 1999).

Series [1] can be described thus: acute oral toxicity (LD50) in rats. Conditions: rat, in vivo, rats (Wistar). The source says: (§1) The sustained-release oral preparation of the present invention is low in toxic potential and can be administered safely to mammals (e.g. cat, bovine, dog, horse, goat, monkey, human) requiring the treatment or prophylaxis of diabetes or inhibition of postprandial hyperglycemia. Particularly, the valiolamine derivative for use in the present invention, for example [2-hydroxy-1-(hydroxymethyl)ethyl]valiolamine (voglibose), is very high in safety rating with the acute oral toxicity (LD50) values in mice (NRM1) and rats (Wistar) being 14.7 ∼ 21.5 grams/kilogram body weight (mice) and about 20 grams/kilogram body weight (rats), respectively.

The nature of series [2]: acute oral toxicity (LD50) in mice. Conditions: mouse, in vivo, mice (NRM1).
Excerpt: as §1

Broadly, the LD50 is the dose at which mortality reaches 50%. Low values mean greater toxicity, high ones lower toxicity. With `OCC(CO)N[C@H]1C[C@](O)(CO)[C@@H](O)[C@H](O)[C@H]1O` [voglibose, 1L(1S)-(1(OH)2,3,5/1,3)-5-[[2-hydroxy-1-(hydroxymethyl)ethyl]amino]-1-C-(hydroxymethyl)-1,2,3,4-cyclohexanetetrol], the LD50 in series [1] was approximately 20000 mg/kg; in series [2], 14700 to 21500 mg/kg.
